Data from US20240180093A1, “GENETIC MARKERS AND SOYBEAN PLANTS WITH INCREASED TOLERANCE TO DICAMBA” (THE CURATORS OF THE UNIVERSITY OF MISSOURI, priority 2022, published 2024).
Like-named read-outs stand apart in the source and are kept apart here.

Assays:
[1] = test system: soybean accessions; conditions: for Mean off-target dicamba damage score: 1 to 5 scale
Text: A total of 382 genetically diverse soybean accessions with maturity groups (MG) ranging from MG 3 to 5 were used in this study. These comprise a subset of the USDA Soybean Germplasm Collection and originated from […], including Algeria (2), China (226), Costa Rica (1), Georgia (2), Indonesia (1), Japan (38), Nepal (1), North Korea (20), Russia (5), South Africa (1), South Korea (32), Taiwan (3), United States (40), and Vietnam (5). Five accessions have unknown origins. The USDA Soybean Germplasm Collection was genotyped with the SoySNP50K BeadChip.
Field trials were conducted in three environments for two years (2020-2021) using a two-replicate randomized complete block design in Portageville, MO (36°23′44.2″N lat; 89°36′52.3″W long) and Clarkton, MO (36°29′14.8″N lat; 89°57′39.0″W long). Each plot consisted of a single 2.13 m long row spaced 0.76 m apart.
Each year, genotypes were visually assessed for off-target dicamba damage once in the early reproductive stage between R1 to R3 (approximately […]). Lines were rated on a 1 to 5 scale with 0.5 increments.
Adjusted means across environments were calculated using the function ‘ls_means’ of the R package ‘lmerTest’ (available at https://www.r-project.org/) based on a mixed-effects linear model conducted with the package ‘lme4’. The model included the fixed effect of genotype, the random interaction between genotype and environment (G×E), the random effect of environment, and the nested random effect of replication within the environment. To measure the consistency and inter-relatedness of the damage ratings across environments, Cronbach's alpha (α) score was calculated each year using the R package ‘psych’ (Revelle, 2021) based on Eq. 1.

[2] = cited from earlier work

Compound: COc1c(Cl)ccc(Cl)c1C(=O)O [dicamba, 3,6-dichloro-2-methoxybenzoic acid]
- Mean off-target dicamba damage score ([1]; environment 2020-Clarkton): 2.70
- Mean off-target dicamba damage score ([1]; environment 2021-Clarkton): 2.80
- Mean off-target dicamba damage score ([1]; environment 2021-LeeFarm): 2.60
- Mean off-target dicamba damage score ([1]; overall, three environments 2020-2021, 382 accessions): 2.70
- average damage ([1]; accession PI 88788): 3.5
- average damage ([1]; accession PI 342434 (Japan)): 1.5
- average damage ([1]; accession PI 424005 (South Korea)): 1.2
- average damage ([1]; accession PI 424038-B (South Korea)): 1.3
- average damage ([1]; accession PI 547862 (L83-570, United States)): 4.1
- average damage ([1]; accession PI 552538 (Dunbar, United States)): 4.2
- average damage ([1]; accession PI 561701 (G88-20092, United States)): 1.4
- average damage ([1]; accession PI 597387 (Pana, United States)): 4.5
- average damage ([1]; accession PI 598124 (Maverick, United States)): 4.3
- average damage ([1]; accession PI 603497 (China)): 1.4
- average damage ([1]; accession PI 603675 (China)): 4.5
- average damage ([1]; accessions derived from Asia): 2.6
- average damage ([1]; accessions derived from the Americas): 3.0
- average damage ([1]; accessions from China): 2.7
- average damage ([1]; accessions from Costa Rica): 3.1
- average damage ([1]; accessions from Japan): 2.6
- average damage ([1]; accessions from South Korea): 2.5
- average damage ([1]; accessions from the United States): 2.3
- average damage ([1]; accessions of maturity group MG 3): 2.8
- average damage ([1]; accessions of maturity group MG 4): 2.7
- average damage ([1]; accessions of maturity group MG 5): 2.5
- mean score of dicamba damage ([1]; genotypes carrying all three favorable alleles (ss715605561, ss715635349, ss715632413)): 1.58
- mean score of dicamba damage ([1]; genotypes carrying all three unfavorable alleles (ss715605561, ss715635349, ss715632413)): 2.90

Compound: O=C(O)CNCP(=O)(O)O [glyphosate, N-(phosphonomethyl)glycine]
- water solubility [2]: high water solubility
